Source: patent US20090004185A1, “AMINO-SUBSTITUTED QUINAZOLINE DERIVATIVES AS INHIBITORS OF BETA-CATENIN/TCF-4 PATHWAY AND CANCER TREATMENT AGENTS” (WYETH, priority 2007, published 2009)

Each molecule was assayed on β-catenin/Tcf-4 (assay: cells). Conditions: Homo sapiens, SW480, 24 h, Tcf 33.13 cells derived from SW480; 24 hours of incubation with compound; ratio Firefly/Renilla luciferase.
Type: cell-based
Excerpt: Background cell line: SW480 colorectal carcinoma DNA constructs:
1) Tcf-4-Luc: Tcf-4 binding sites driving Firefly Luciferase in the pGL3 vector—to measure the activity of β-catenin/Tcf-4;
(§1) 2) SV40-Luc: SV40 binding site driving Firefly Luciferase in the pGL3 vector—as a control for non-specific inhibitors; and
(§2) 3) SV40-R-Luc: SV40 binding site driving Renilla Luciferase in the pGL3 vector—as an internal control for cell number and toxicity.
This screen uses 3 cell lines derived from SW480 and selected to contain the above luciferase reporters integrated into their chromosomes as follows: […]
(§3) Cells: Tcf22C11 and SV5A8 were grown in the presence of 500 μg/ml G418 and Tcf 33.13 was grown in the presence of 500 μg/ml G418+125 μg/ml Zeocin to maintain the integrated reporters. The cells were trypsinized and plated at 1×10^4 cells/well in opaque 96 well plates.
The compounds were diluted as follows: The compounds were stored frozen in dimethyl sulfoxide (DMSO) at […]. Compounds were initially titrated in DMSO to make a 1000×DMSO stock solution. Compounds were then diluted 1:25 into media/DMSO (DMEM+10% FBS+9% DMSO). Using the Biomek Multimek, the diluted compounds were mixed well and immediately added to the plated cells in a 1:40 dilution. The final concentration of DMSO in the assay plates was 0.316% DMSO.
(§4) Assay Readout: The luciferase signal was detected using a luciferase detection kit from Promega. Until December 2003, Promega's Dual-Luciferase® Reporter (DLR™) Assay System was used to detect luciferase activity. Briefly, after 24 hours of incubation with compound, culture media was removed by aspiration and 20 ul of passive lysis buffer (Promega) per well was added. The plates were shaken for 15 min. Firefly substrate was then added and the resulting luminescence was immediately read on a CCD camera imaging device or a luminometer. After quantifying the firefly luminescence, the reaction was quenched, and the Renilla luciferase reaction was initiated simultaneously by adding Stop & Glo® Reagent to the same sample. Renilla luciferase was then quantified using the CCD camera or luminometer.
Promega's Dual-Glo™ Luciferase Assay System can be used for luciferase detection. […] Briefly, after 24 hours of incubation with compound, culture media was removed by aspiration and 75 ul of fresh medium was added. Add 75 ul of Dual-Glo Luciferase Reagent (Promega) to each well and mix by shaking for 10 minutes on a plate shaker. Then, measure the firefly luminescence on a CCD camera imaging device or a luminometer. After quantifying the firefly luminescence, add 75 ul of Dual-Glo Stop & Glo Reagent (Promega) to each well and mix for 10 minutes. Renilla luciferase was then quantified using the CCD camera or luminometer.
(§5) This assay was meant to confirm primary leads and determine IC50s. Compounds were tested at titrated dilutions. The raw data for this assay was reported in protocol 2463-B. Protocol 2463-C contains the IC50 calculations based on the raw data. The data calculations were done as follows:
(§6) The data was expressed as % of control for both Firefly and Renilla Luciferase. The ratio of FF/Renilla (F/R) was then calculated and averaged between duplicate plates. The data was then plotted using LSW Data Analysis in Microsoft Excel. IC50s were determined by plotting the data in the LSW Data Analysis program using model 33. The IC50s (nM) for all three cell lines were reported.

| IC50 [nM] | SMILES |
| --- | --- |
| > 6020 | CNc1nc(NCc2ccc(NC(=O)c3cc(F)ccc3C)cc2)c2ccccc2n1 [Example 1, 5-fluoro-2-methyl-N-[4-({[2-(methylamino)quinazolin-4-yl]amino}methyl)phenyl]benzamide] |
| > 2920 | CNc1nc(NCc2ccc(NC(=O)COCc3ccccc3)cc2)c2ccccc2n1 [Example 2, 2-(benzyloxy)-N-[4-({[2-(methylamino)quinazolin-4-yl]amino}methyl)phenyl]acetamide] |

Same assay, conditions: Homo sapiens, Tcf22C11, 24 h, Tcf 22C11 cells derived from SW480; 24 hours of incubation with compound; ratio Firefly/Renilla luciferase

| IC50 [nM] | SMILES |
| --- | --- |
| > 6020 | CNc1nc(NCc2ccc(NC(=O)c3cc(F)ccc3C)cc2)c2ccccc2n1 [Example 1, 5-fluoro-2-methyl-N-[4-({[2-(methylamino)quinazolin-4-yl]amino}methyl)phenyl]benzamide] |
| > 2920 | CNc1nc(NCc2ccc(NC(=O)COCc3ccccc3)cc2)c2ccccc2n1 [Example 2, 2-(benzyloxy)-N-[4-({[2-(methylamino)quinazolin-4-yl]amino}methyl)phenyl]acetamide] |

Each molecule was assayed on SV40-Luc (assay: SV40-Luc control luciferase reporter assay, SV 5A8 cell line (SV40-Luc and SV40-R-Luc), control for non-specific inhibitors). Conditions: Homo sapiens, SV5A8, 24 h, SV 5A8 cells derived from SW480; 24 hours of incubation with compound; ratio Firefly/Renilla luciferase.
Type: cell-based, human
Excerpt: Background cell line: SW480 colorectal carcinoma DNA constructs: […]
as §1, §2
This screen uses 3 cell lines derived from SW480 and selected to contain the above luciferase reporters integrated into their chromosomes as follows:
SV 5A8—SV40-Luc and SV40-R-Luc
as §3
Compounds: 20-24 hours after cell plating, compounds were added at titrated concentrations between […]. The compounds were diluted as follows: The compounds were stored frozen in dimethyl sulfoxide (DMSO) at […]. Compounds were initially titrated in DMSO to make a 1000×DMSO stock solution. Compounds were then diluted 1:25 into media/DMSO (DMEM+10% FBS+9% DMSO). Using the Biomek Multimek, the diluted compounds were mixed well and immediately added to the plated cells in a 1:40 dilution. The final concentration of DMSO in the assay plates was 0.316% DMSO.
as §4
Promega's Dual-Glo™ Luciferase Assay System can be used for luciferase detection. It was similar to the DLR Assay, however, unlike the DLR which has to be read immediately due to decaying signal, the signal in the Dual-Glo™ Luciferase Assay was stable for up to 2 hours. Briefly, after 24 hours of incubation with compound, culture media was removed by aspiration and 75 ul of fresh medium was added. Add 75 ul of Dual-Glo Luciferase Reagent (Promega) to each well and mix by shaking for 10 minutes on a plate shaker. Then, measure the firefly luminescence on a CCD camera imaging device or a luminometer. After quantifying the firefly luminescence, add 75 ul of Dual-Glo Stop & Glo Reagent (Promega) to each well and mix for 10 minutes. Renilla luciferase was then quantified using the CCD camera or luminometer.
as §5, §6

| SMILES | IC50 [nM] |
| --- | --- |
| CNc1nc(NCc2ccc(NC(=O)c3ccc(C)cc3)cc2)c2ccccc2n1 [Example 12, 4-methyl-N-[4-({[2-(methylamino)quinazolin-4-yl]amino}methyl)phenyl]benzamide] | > 25200 |
| Cc1ccc2c(NCc3ccc(NC(=O)c4ccc(F)cc4)cc3)nc(N3CCN(C)CC3)nc2c1 [Example 204, 4-fluoro-N-[4-({[7-methyl-2-(4-methylpiperazin-1-yl)quinazolin-4-yl]amino}methyl)phenyl]benzamide] | > 10300 |
| Cc1ccc2c(NCc3ccc(NC(=O)c4ccc(F)cc4)cc3)nc(N3CCNC(C)(C)C3)nc2c1 [Example 236, N-[4-({[2-(3,3-dimethylpiperazin-1-yl)-7-methylquinazolin-4-yl]amino}methyl)phenyl]-4-fluorobenzamide] | > 5010 |
| Cc1ccc2c(NCc3ccc(NC(=O)c4ccc(F)cc4)cc3)nc(N3CCCC3)nc2c1 [Example 209, 4-fluoro-N-(4-{[(7-methyl-2-pyrrolidin-1-ylquinazolin-4-yl)amino]methyl}phenyl)benzamide] | > 2740 |
| Cc1ccc2c(NCc3ccc(NC(=O)c4ccc(F)cc4)cc3)nc(N3CCCCC3)nc2c1 [Example 206, 4-fluoro-N-(4-{[(7-methyl-2-piperidin-1-ylquinazolin-4-yl)amino]methyl}phenyl)benzamide] | > 2660 |
| CNc1nc(NCc2ccc(NC(=O)c3ccc(F)cc3)cc2)c2c(C)cccc2n1 [Example 192, 4-fluoro-N-[4-({[5-methyl-2-(methylamino)quinazolin-4-yl]amino}methyl)phenyl]benzamide] | > 3010 |
| CNc1nc(NCc2ccc(NC(=O)c3cccc(Cl)c3)cc2)c2ccccc2n1 [Example 11, 3-chloro-N-[4-({[2-(methylamino)quinazolin-4-yl]amino}methyl)phenyl]benzamide] | > 5980 |
| CNc1nc(NCc2ccc(NC(=O)c3ccc(Cl)cc3)cc2)c2cc(C)ccc2n1 [Example 18, 4-chloro-N-[4-({[6-methyl-2-(methylamino)quinazolin-4-yl]amino}methyl)phenyl]benzamide] | > 5790 |
| Cc1ccc2c(NCc3ccc(NC(=O)c4ccc(F)cc4)cc3)nc(N3CCOCC3)nc2c1 [Example 207, 4-fluoro-N-(4-{[(7-methyl-2-morpholin-4-ylquinazolin-4-yl)amino]methyl}phenyl)benzamide] | > 10600 |
| CNc1nc(NCc2ccc(NC(=O)c3ccc(Cl)nc3)cc2)c2cccc(C)c2n1 [Example 183, 6-chloro-N-[4-({[8-methyl-2-(methylamino)quinazolin-4-yl]amino}methyl)phenyl]nicotinamide] | > 2890 |
| CNc1nc(NCc2ccc(NC(=O)c3ccnc(Cl)c3)cc2)c2ccccc2n1 [Example 4, 2-chloro-N-[4-({[2-(methylamino)quinazolin-4-yl]amino}methyl)phenyl]isonicotinamide] | > 2980 |
| CNc1nc(NCc2ccc(NC(=O)c3ccc(F)cc3)cc2)c2cccc(C)c2n1 [Example 190, 4-fluoro-N-[4-({[8-methyl-2-(methylamino)quinazolin-4-yl]amino}methyl)phenyl]benzamide] | > 3010 |
| CNc1nc(NCc2ccc(NC(=O)c3ccc(Cl)cc3)cc2)c2cccc(C)c2n1 [Example 191, 4-chloro-N-[4-({[8-methyl-2-(methylamino)quinazolin-4-yl]amino}methyl)phenyl]benzamide] | > 1450 |
| CNc1nc(NCc2ccc(NC(=O)c3ccc(Cl)nc3)cc2)c2ccc(C)cc2n1 [Example 264, 6-chloro-N-[4-({[7-methyl-2-(methylamino)quinazolin-4-yl]amino}methyl)phenyl]nicotinamide] | > 1440 |
| CNc1nc(NCc2ccc(NC(=O)c3ccc(C(F)(F)F)cc3)cc2)c2ccccc2n1 [Example 20, N-[4-({[2-(methylamino)quinazolin-4-yl]amino}methyl)phenyl]-4-(trifluoromethyl)benzamide] | > 1380 |

Results, then the molecule that gave them:

| IC50 [nM] | SMILES |
| --- | --- |
| > 18500 | CN(C)c1nc(NCc2ccc(NC(=O)c3ccc(F)cc3)cc2)c2ccc(I)cc2n1 [Example 86, N-[4-({[2-(dimethylamino)-7-iodoquinazolin-4-yl]amino}methyl)phenyl]-4-fluorobenzamide] |
| > 21000 | CN(C)c1nc(NCc2ccc(NC(=O)c3ccc(F)cc3)cc2)c2ccc(C#N)cc2n1 [Example 89, N-[4-({[7-cyano-2-(dimethylamino)quinazolin-4-yl]amino}methyl)phenyl]-4-fluorobenzamide] |
| > 9170 | CN(C)Cc1ccc2c(NCc3ccc(NC(=O)c4ccc(F)cc4)cc3)nc(N(C)C)nc2c1 [Example 91, N-{4-[({2-(dimethylamino)-7-[(dimethylamino)methyl]quinazolin-4-yl}amino)methyl]phenyl}-4-fluorobenzamide] |
| > 752 | CNc1nc(NCc2ccc(NC(=O)c3ccc(F)cc3)cc2)c2ccc(C)cc2n1 [Example 230, 4-fluoro-N-[4-({[7-methyl-2-(methylamino)quinazolin-4-yl]amino}methyl)phenyl]benzamide] |
| > 2580 | Cc1ccc2c(NCc3ccc(NC(=O)c4ccc(F)cc4)cc3)nc(N3CCN[C@H](C)C3)nc2c1 [Example 225, 4-fluoro-N-{4-[({7-methyl-2-[(3R)-3-methylpiperazin-1-yl]quinazolin-4-yl}amino)methyl]phenyl}benzamide] |
| > 2830 | Cc1ccc2c(NCc3ccc(NC(=O)c4ccc(F)cc4)cc3)nc(N3CCC3)nc2c1 [Example 202, N-(4-{[(2-azetidin-1-yl-7-methylquinazolin-4-yl)amino]methyl}phenyl)-4-fluorobenzamide] |
| > 2600 | CCc1ccc2c(NCc3ccc(NC(=O)c4ccc(F)cc4)cc3)nc(N(C)C)nc2c1 [Example 88, N-[4-({[2-(dimethylamino)-7-ethylquinazolin-4-yl]amino}methyl)phenyl]-4-fluorobenzamide] |
| > 778 | CNc1nc(NCc2ccc(NC(=O)c3ccc(F)cc3)cc2)c2ccccc2n1 [Example 13, 4-fluoro-N-[4-({[2-(methylamino)quinazolin-4-yl]amino}methyl)phenyl]benzamide] |
